Results reported in PubChem BioAssay (NCI).
Where “and” joins values, the source holds several entries; their conditions need not be identical. Equal values may be shown once.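 Tested at 5 concentrations; 48 h exposure; 96-well plates; endpoints linearly interpolated, else capped at highest concentration. GI50 is the concentration that inhibits growth by half. TGI: total growth inhibition.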

Legend:
Experiment in all cases: inhibition of tumour cell growth, NCI panel, 48 h
[1] = test system: SN12C renal
[2] = test system: HCT-116 colon
[3] = test system: KM20L2 colon
[4] = test system: SK-OV-3 ovarian
[5] = test system: DLD-1 colon
[6] = test system: UACC-62 melanoma
[7] = test system: OVCAR-8 ovarian
[8] = test system: DMS 273 small cell lung
[9] = test system: K-562 leukemia
[10] = test system: NCI-H23 lung
[11] = test system: SK-MEL-5 melanoma
[12] = test system: OVCAR-4 ovarian
[13] = test system: DMS 114 small cell lung
[14] = test system: SW-620 colon
[15] = test system: 786-0 renal
[16] = test system: EKVX NSCLC
[17] = test system: SNB-75 CNS
[18] = test system: NCI-H460 lung
[19] = test system: HCC-2998 colon
[20] = test system: A549 NSCLC
[21] = test system: TK-10 renal
[22] = test system: U251 CNS
[23] = test system: SK-MEL-2 melanoma
[24] = test system: UO-31 renal
[25] = test system: HCT-15 colon
[26] = test system: MALME-3M melanoma
[27] = test system: LXFL 529 NSCLC
[28] = test system: SF-539 CNS
[29] = test system: OVCAR-3 ovarian
[30] = test system: RXF 393 renal
[31] = test system: HOP-62 NSCLC
[32] = test system: CCRF-CEM leukemia
[33] = test system: M14 melanoma
[34] = test system: HOP-18 NSCLC
[35] = test system: SF-268 CNS
[36] = test system: NCI-H226 lung
[37] = test system: SK-MEL-28 melanoma
[38] = test system: HT29 colon
[39] = test system: RPMI-8226 leukemia
[40] = test system: ACHN renal
[41] = test system: HOP-92 NSCLC
[42] = test system: LOX IMVI melanoma
[43] = test system: COLO 205 colon
[44] = test system: SNB-19 CNS
[45] = test system: XF 498 CNS
[46] = test system: CAKI-1 renal
[47] = test system: KM12 colon
[48] = test system: NCI-H522 lung
[49] = test system: MOLT-4 leukemia
[50] = test system: M19-MEL melanoma
[51] = test system: IGROV1 ovarian
[52] = test system: SF-295 CNS
[53] = test system: SR leukemia
[54] = test system: OVCAR-5 ovarian
[55] = test system: HL-60(TB) leukemia
[56] = test system: UACC-257 melanoma
[57] = test system: SNB-78 CNS

For COc1cc(C2c3cc4c(cc3[C@@H](NCCCN3CCCC3=O)C3COC(=O)[C@H]23)OCO4)cc(OC)c1O (some centres undefined), the TGI [1] was 80.9 µM and > 17.5 µM, the TGI [2] was greater than 100 µM and the TGI [3] was greater than 100 µM. For the same compound, the TGI [4] was 39.4 µM, the TGI [5] was greater than 100 µM and the GI50 [6] was 4.03 µM and 0.677 µM. The TGI [6] was 26 µM and > 17.5 µM, the TGI [7] was greater than 100 µM and the GI50 [8] was 3.59 µM and 0.476 µM. The TGI [8] was 21.3 µM and > 17.5 µM, the TGI [9] was greater than 100 µM and the GI50 [10] was 5.27 µM. The TGI [10] was 32.2 µM, the GI50 [11] was 4.21 µM and 0.526 µM and the TGI [11] was 33.5 µM and > 17.5 µM. For the same compound, the GI50 [12] was greater than 100 µM, the TGI [12] was greater than 100 µM and the GI50 [13] was 2.89 µM and 0.701 µM. For the same compound, the TGI [13] was 9.46 µM and > 17.5 µM, the TGI [14] was greater than 100 µM and the TGI [15] was 60.4 µM and > 17.5 µM. The TGI [16] was greater than 100 µM, the TGI [17] was 6.81 µM and the GI50 [18] was 1.54 µM and 0.58 µM. For the same compound, the TGI [18] was 15.7 µM and > 17.5 µM, the TGI [19] was 85.7 µM and the GI50 [20] was 6.23 µM and 1.01 µM. For the same compound, the TGI [20] was 40 µM and > 17.5 µM, the TGI [21] was greater than 100 µM and the TGI [22] was 63 µM and > 17.5 µM. The TGI [23] was greater than 100 µM, the TGI [24] was 43.7 µM and > 17.5 µM and the TGI [25] was greater than 100 µM. The GI50 [26] was 11 µM, the TGI [26] was greater than 100 µM and the TGI [27] was greater than 100 µM. The GI50 [28] was 3.65 µM, the TGI [28] was 21.4 µM and the TGI [29] was greater than 100 µM. For the same compound, the TGI [30] was greater than 100 µM, the GI50 [31] was 5.45 µM and 0.712 µM and the TGI [31] was 34.3 µM and > 17.5 µM. The TGI [32] was greater than 100 µM, the TGI [33] was greater than 100 µM and the TGI [34] was greater than 100 µM. For the same compound, the GI50 [35] was 9.24 µM and 1.58 µM, the TGI [35] was greater than 100 µM and the GI50 [36] was 3.38 µM and 1.35 µM. For the same compound, the TGI [36] was 23 µM and 9.53 µM, the TGI [37] was greater than 100 µM and the TGI [38] was greater than 100 µM. The TGI [39] was greater than 100 µM, the TGI [40] was 16.5 µM and the TGI [41] was 71.1 µM and > 17.5 µM. The GI50 [42] was 8.13 µM and 0.813 µM, the TGI [42] was 33.7 µM and > 17.5 µM and the TGI [43] was greater than 100 µM. For the same compound, the GI50 [44] was 38 µM and > 17.5 µM, the TGI [44] was greater than 100 µM and the TGI [45] was greater than 100 µM. It also gave a TGI [46] greater than 100 µM, a TGI [47] greater than 100 µM and a GI50 [48] of 5.65 µM. It also gave a TGI [48] of 84.3 µM, a TGI [49] greater than 100 µM and a TGI [50] greater than 100 µM. For the same compound, the TGI [51] was greater than 100 µM, the TGI [52] was greater than 100 µM and the TGI [53] was greater than 100 µM.

With Cc1ccc(C2C(Cl)C(=O)N2n2cnc3ccccc3c2=O)cc1 (centres undefined) the TGI [1] was greater than 100 µM, the TGI [54] was greater than 100 µM and the TGI [2] was greater than 100 µM. It also gave a TGI [3] greater than 100 µM, a TGI [4] greater than 100 µM and a TGI [5] greater than 100 µM. For the same compound, the TGI [6] was greater than 100 µM, the TGI [7] was greater than 100 µM and the TGI [8] was greater than 100 µM. It also gave a TGI [9] greater than 100 µM, a TGI [10] greater than 100 µM and a TGI [11] greater than 100 µM. It also gave a TGI [12] greater than 100 µM, a TGI [55] greater than 100 µM and a TGI [13] greater than 100 µM. It also gave a TGI [14] greater than 100 µM, a TGI [15] greater than 100 µM and a TGI [16] greater than 100 µM. It also gave a TGI [17] greater than 100 µM, a TGI [56] greater than 100 µM and a TGI [18] greater than 100 µM. The TGI [19] was greater than 100 µM, the TGI [20] was greater than 100 µM and the TGI [21] was greater than 100 µM. For the same compound, the TGI [22] was greater than 100 µM, the TGI [23] was greater than 100 µM and the TGI [24] was 90.4 µM. For the same compound, the TGI [25] was greater than 100 µM, the TGI [26] was greater than 100 µM and the TGI [27] was greater than 100 µM. The TGI [29] was greater than 100 µM, the TGI [30] was greater than 100 µM and the TGI [31] was greater than 100 µM. It also gave a TGI [57] greater than 100 µM, a TGI [32] greater than 100 µM and a TGI [33] greater than 100 µM. For the same compound, the TGI [34] was greater than 100 µM, the TGI [35] was greater than 100 µM and the TGI [36] was greater than 100 µM. For the same compound, the TGI [37] was greater than 100 µM, the TGI [38] was greater than 100 µM and the TGI [39] was greater than 100 µM. The TGI [40] was greater than 100 µM, the TGI [42] was greater than 100 µM and the TGI [43] was greater than 100 µM. For the same compound, the TGI [44] was greater than 100 µM, the TGI [45] was greater than 100 µM and the TGI [46] was greater than 100 µM. The TGI [47] was greater than 100 µM, the TGI [48] was greater than 100 µM and the TGI [49] was greater than 100 µM. It also gave a TGI [50] greater than 100 µM, a TGI [51] greater than 100 µM and a TGI [52] greater than 100 µM. It also gave a TGI [53] greater than 100 µM.
